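Dose response: 5 concentrations. Exposure: 48 h. Format: 96-well plates. Endpoint: linear interpolation; highest concentration if not reached. GI50 marks 50% less growth.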 Activity calls are given as the source filed them. No stated cut-off is given here; in the data, active = GI50 up to about 1.1 µM and inactive = higher.
Tests used:
Test in all cases: NCI anticancer screen, dose series, 48 h
[1] = system: Malme-3M
[2] = system: SNB-75
[3] = system: HOP-92
[4] = system: OVCAR-8
[5] = system: HOP-18
[6] = system: CCRF-CEM
[7] = system: HOP-62
[8] = system: SK-MEL-5
[9] = system: UO-31
[10] = system: UACC-62
[11] = system: CAKI-1
[12] = system: NCI-H226
[13] = system: OVCAR-5
[14] = system: HL-60
[15] = system: NCI-H460
[16] = system: K562
[17] = system: HCT-15
[18] = system: DMS-114
[19] = system: LOX IMVI
[20] = system: SNB-19
[21] = system: ACHN
[22] = system: DLD-1
[23] = system: SNB-78
[24] = system: M19-MEL
[25] = system: OVCAR-3
[26] = system: HT-29
[27] = system: RXF 393
[28] = system: XF498
[29] = system: DMS-273
[30] = system: HCT-116
[31] = system: A498
[32] = system: 786-0
[33] = system: MOLT-4
[34] = system: EKVX
[35] = system: SW-620
[36] = system: IGROV-1
[37] = system: TK-10
[38] = system: OVCAR-4
[39] = system: SK-MEL-2
[40] = system: SF-268
[41] = system: RPMI-8226
[42] = system: SF-539
[43] = system: SN12C
[44] = system: A549
[45] = system: SK-MEL-28
[46] = system: UACC-257
[47] = system: KM12
[48] = system: COLO 205
[49] = system: M14
[50] = system: SK-OV-3
[51] = system: NCI-H23
[52] = system: SF-295
[53] = system: KM-20L2
[54] = system: HCC 2998
[55] = system: NCI-H522
[56] = system: LXFL 529
[57] = system: SR
[58] = system: U-251

In the case of COC(=O)C(C(=O)C(=O)Nc1ccc(N)cc1[N+](=O)[O-])c1nc2ccc(Cl)cc2nc1O (stereo not given), the GI50 [1] is reported as > 100 µM (inactive), the GI50 [2] is reported as 32.4 µM (inactive) and the GI50 [3] is reported as 52.7 µM (inactive). For the same compound, the GI50 [4] was > 100 µM (inactive), the GI50 [5] was 72.3 µM (inactive) and the GI50 [6] was 92.5 µM (inactive). For the same compound, the GI50 [7] was > 100 µM (inactive), the GI50 [8] was 95.5 µM (inactive) and the GI50 [9] was 41 µM (inactive). The GI50 [10] was > 100 µM (inactive), the GI50 [11] was > 100 µM (inactive) and the GI50 [12] was 63 µM (inactive). The GI50 [13] was > 100 µM (inactive), the GI50 [14] was > 100 µM (inactive) and the GI50 [15] was > 100 µM (inactive). For the same compound, the GI50 [16] was > 100 µM (inactive), the GI50 [17] was over 100 µM and the GI50 [18] was > 100 µM (inactive). For the same compound, the GI50 [19] was > 100 µM (inactive), the GI50 [20] was > 100 µM (inactive) and the GI50 [21] was > 100 µM (inactive). The GI50 [22] was > 100 µM (inactive), the GI50 [23] was > 100 µM (inactive) and the GI50 [24] was > 100 µM (inactive). For the same compound, the GI50 [25] was 74.8 µM (inactive), the GI50 [26] was > 100 µM (inactive) and the GI50 [27] was 60.7 µM (inactive). The GI50 [28] was 70.8 µM (inactive), the GI50 [29] was > 100 µM (inactive) and the GI50 [30] was > 100 µM (inactive). For the same compound, the GI50 [31] was > 100 µM (inactive), the GI50 [32] was > 100 µM (inactive) and the GI50 [33] was > 100 µM (inactive). The GI50 [34] was > 100 µM (inactive), the GI50 [35] was > 100 µM (inactive) and the GI50 [36] was > 100 µM (inactive). The GI50 [37] was > 100 µM (inactive), the GI50 [38] was > 100 µM (inactive) and the GI50 [39] was > 100 µM (inactive). For the same compound, the GI50 [40] was 72.9 µM (inactive), the GI50 [41] was > 100 µM (inactive) and the GI50 [42] was > 100 µM (inactive). For the same compound, the GI50 [43] was > 100 µM (inactive), the GI50 [44] was > 100 µM (inactive) and the GI50 [45] was > 100 µM (inactive). The GI50 [46] was > 100 µM (inactive), the GI50 [47] was > 100 µM (inactive) and the GI50 [48] was > 100 µM (inactive). For the same compound, the GI50 [49] was > 100 µM (inactive), the GI50 [50] was > 100 µM (inactive) and the GI50 [51] was > 100 µM (inactive). The GI50 [52] was > 100 µM (inactive), the GI50 [53] was > 100 µM (inactive) and the GI50 [54] was > 100 µM (inactive).

With ClCCNCCNCCCl.ClCCNCCNCCCl.[O-][Cl+3]([O-])([O-])O the GI50 [1] was 19.5 µM (inactive), the GI50 [2] was 19 µM (inactive) and the GI50 [3] was 39.7 µM (inactive). For the same compound, the GI50 [55] was 11.4 µM (inactive), the GI50 [4] was 18.9 µM (inactive) and the GI50 [5] was 24.3 µM (inactive). The GI50 [6] was 29.5 µM (inactive), the GI50 [7] was > 100 µM (inactive) and the GI50 [8] was 23 µM (inactive). The GI50 [9] was 26.8 µM (inactive), the GI50 [56] was 17.2 µM (inactive) and the GI50 [10] was 26.9 µM (inactive). For the same compound, the GI50 [11] was 19.1 µM (inactive), the GI50 [12] was > 100 µM (inactive) and the GI50 [13] was 24.9 µM (inactive). For the same compound, the GI50 [14] was 30.3 µM (inactive), the GI50 [15] was 22.3 µM (inactive) and the GI50 [16] was 23.6 µM (inactive). For the same compound, the GI50 [17] was 55.8 µM, the GI50 [18] was 23.9 µM (inactive) and the GI50 [19] was 20 µM (inactive). For the same compound, the GI50 [20] was > 100 µM (inactive), the GI50 [21] was 21.9 µM (inactive) and the GI50 [22] was 18.5 µM (inactive). The GI50 [23] was 44.6 µM (inactive), the GI50 [24] was 27.2 µM (inactive) and the GI50 [57] was 23.1 µM (inactive). For the same compound, the GI50 [25] was 17.6 µM (inactive), the GI50 [26] was > 100 µM (inactive) and the GI50 [27] was 40.7 µM (inactive). The GI50 [29] was 27.5 µM (inactive), the GI50 [30] was 27.5 µM (inactive) and the GI50 [31] was 57.1 µM (inactive). For the same compound, the GI50 [32] was 18.8 µM (inactive), the GI50 [33] was 31.4 µM (inactive) and the GI50 [34] was > 100 µM (inactive). For the same compound, the GI50 [35] was 21 µM (inactive), the GI50 [36] was 22.5 µM (inactive) and the GI50 [37] was 49.9 µM (inactive). For the same compound, the GI50 [38] was 22.3 µM (inactive), the GI50 [39] was 21.4 µM (inactive) and the GI50 [40] was 25.5 µM (inactive). For the same compound, the GI50 [41] was 33.3 µM (inactive), the GI50 [58] was 25.4 µM (inactive) and the GI50 [42] was 26.2 µM (inactive). For the same compound, the GI50 [43] was 61.2 µM (inactive), the GI50 [44] was 73.5 µM (inactive) and the GI50 [45] was 46.2 µM (inactive). The GI50 [46] was 27 µM (inactive), the GI50 [47] was > 100 µM (inactive) and the GI50 [48] was 40.7 µM (inactive). For the same compound, the GI50 [49] was 19.5 µM (inactive), the GI50 [50] was > 100 µM (inactive) and the GI50 [51] was 27.9 µM (inactive). The GI50 [52] was 54.6 µM (inactive), the GI50 [53] was 67.3 µM (inactive) and the GI50 [54] was > 100 µM (inactive).

Cc1c2c(cc3c1C(=O)C(=O)C1=C3OC[C@@H]1C)C(C)(C)CCC2 was tested, and the GI50 [1] was 15.6 µM (inactive), the GI50 [2] was 26.1 µM (inactive) and the GI50 [3] was 21.3 µM (inactive). For the same compound, the GI50 [4] was 18.2 µM (inactive), the GI50 [5] was 17.1 µM (inactive) and the GI50 [6] was 18 µM (inactive). The GI50 [7] was 21.5 µM (inactive), the GI50 [8] was 13.3 µM (inactive) and the GI50 [9] was 18.7 µM (inactive). The GI50 [56] was 16 µM (inactive), the GI50 [10] was 13.2 µM (inactive) and the GI50 [11] was 19.3 µM (inactive). For the same compound, the GI50 [13] was 21.5 µM (inactive), the GI50 [14] was 10.3 µM (inactive) and the GI50 [15] was 13.7 µM (inactive). The GI50 [16] was 14.9 µM (inactive), the GI50 [17] was 14.2 µM and the GI50 [18] was 16.8 µM (inactive). For the same compound, the GI50 [19] was 7.43 µM (inactive), the GI50 [20] was 22.1 µM (inactive) and the GI50 [21] was 16 µM (inactive). For the same compound, the GI50 [22] was 18.7 µM (inactive), the GI50 [24] was 2.64 µM (inactive) and the GI50 [57] was 11.6 µM (inactive). The GI50 [25] was 13.9 µM (inactive), the GI50 [26] was 16.6 µM (inactive) and the GI50 [27] was 17.9 µM (inactive). For the same compound, the GI50 [28] was 29.9 µM (inactive), the GI50 [29] was 14.4 µM (inactive) and the GI50 [30] was 13.8 µM (inactive). For the same compound, the GI50 [31] was 22.3 µM (inactive), the GI50 [32] was 23.4 µM (inactive) and the GI50 [33] was 12.4 µM (inactive). For the same compound, the GI50 [34] was 20.9 µM (inactive), the GI50 [35] was 15.1 µM (inactive) and the GI50 [36] was 19.7 µM (inactive). The GI50 [37] was 26.5 µM (inactive), the GI50 [38] was 17.9 µM (inactive) and the GI50 [39] was 6.15 µM (inactive). For the same compound, the GI50 [40] was 14.1 µM (inactive), the GI50 [58] was 16.2 µM (inactive) and the GI50 [42] was 16.3 µM (inactive). For the same compound, the GI50 [43] was 16.8 µM (inactive), the GI50 [44] was 13 µM (inactive) and the GI50 [45] was 14 µM (inactive). For the same compound, the GI50 [46] was 15.1 µM (inactive), the GI50 [47] was 11.9 µM (inactive) and the GI50 [48] was 7.29 µM (inactive). For the same compound, the GI50 [49] was 13.9 µM (inactive), the GI50 [50] was 41.9 µM (inactive) and the GI50 [51] was 14.8 µM (inactive). The GI50 [52] was 14.5 µM (inactive), the GI50 [53] was 19.5 µM (inactive) and the GI50 [54] was 20.4 µM (inactive).

Reference: ChEMBL document CHEMBL1201862, “PubChem BioAssay data set” (2004)
